Test: xn = mol fraction of the nth substance listed
Conditions: 101 kPa, Liquid

C1N2CN3CN1CN(C2)C3 [1,3,5,7-tetraazaadamantane] + CC(=O)O
Conditions	mass density [kg/m3]	viscosity [mPa·s]
293.15 K, x1 = 0.0201	1058.6	1.497
293.15 K, x1 = 0.0401	1066.7	1.865
293.15 K, x1 = 0.06	1075.67	2.363
293.15 K, x1 = 0.0801	1085.77	3.021
293.15 K, x1 = 0.1	1091.87	3.841
293.15 K, x1 = 0.1201	1100.76	4.951
293.15 K, x1 = 0.15	1111.19	7.154
298.15 K, x1 = 0.0201	1052.66	1.367
298.15 K, x1 = 0.0401	1061.41	1.682
298.15 K, x1 = 0.06	1070.38	2.106
298.15 K, x1 = 0.0801	1080.66	2.655
298.15 K, x1 = 0.1	1086.54	3.333
298.15 K, x1 = 0.1201	1095.79	4.254
298.15 K, x1 = 0.15	1106.18	5.988
303.15 K, x1 = 0.0201	1046.65	1.248
303.15 K, x1 = 0.0401	1055.87	1.523
303.15 K, x1 = 0.06	1065.17	1.893
303.15 K, x1 = 0.0801	1075.44	2.355
303.15 K, x1 = 0.1	1081.61	2.919
303.15 K, x1 = 0.1201	1090.8	3.657
303.15 K, x1 = 0.15	1101.14	5.085
308.15 K, x1 = 0.0201	1042.8	1.148
308.15 K, x1 = 0.0401	1050.6	1.383
308.15 K, x1 = 0.06	1059.92	1.703
308.15 K, x1 = 0.0801	1068.93	2.091
308.15 K, x1 = 0.1	1076.58	2.565
308.15 K, x1 = 0.1201	1086.04	3.179
308.15 K, x1 = 0.15	1096.34	4.368
313.15 K, x1 = 0.0201	1036.2	1.059
313.15 K, x1 = 0.0401	1045.66	1.268
313.15 K, x1 = 0.06	1055.02	1.549
313.15 K, x1 = 0.0801	1063.52	1.879
313.15 K, x1 = 0.1	1071.68	2.296
313.15 K, x1 = 0.1201	1081.27	2.806
313.15 K, x1 = 0.15	1091.63	3.821
318.15 K, x1 = 0.0201	1030.1	0.992
318.15 K, x1 = 0.0401	1039.61	1.179
318.15 K, x1 = 0.06	1049.52	1.435
318.15 K, x1 = 0.0801	1057.74	1.719
318.15 K, x1 = 0.1	1065.6	2.073
318.15 K, x1 = 0.1201	1076.49	2.512
318.15 K, x1 = 0.15	1086	3.352
323.15 K, x1 = 0.0201	1024.35	0.909
323.15 K, x1 = 0.0401	1034.21	1.072
323.15 K, x1 = 0.06	1044.05	1.296
323.15 K, x1 = 0.0801	1052.4	1.541
323.15 K, x1 = 0.1	1060.71	1.842
323.15 K, x1 = 0.1201	1069.06	2.203
323.15 K, x1 = 0.15	1080.9	2.893
328.15 K, x1 = 0.0201	1019.23	0.845
328.15 K, x1 = 0.0401	1028.98	0.988
328.15 K, x1 = 0.06	1039.22	1.185
328.15 K, x1 = 0.0801	1047.33	1.395
328.15 K, x1 = 0.1	1055.72	1.657
328.15 K, x1 = 0.1201	1064	1.97
328.15 K, x1 = 0.15	1075.88	2.545
333.15 K, x1 = 0.0201	1014.76	0.79
333.15 K, x1 = 0.0401	1024.69	0.919
333.15 K, x1 = 0.06	1034.16	1.096
333.15 K, x1 = 0.0801	1043.04	1.279
333.15 K, x1 = 0.1	1051.63	1.515
333.15 K, x1 = 0.1201	1059.77	1.776
333.15 K, x1 = 0.15	1071.94	2.285
